Source: ChEMBL document CHEMBL1201862, “PubChem BioAssay data set” (2004)
The source made the active and inactive calls.

Columns and labels:
[1] = P. falciparum late gametocyte killing, dose response, luminescence (AID 1117278); format: functional, cell-based;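 note: gametocytes exposed to compound for 24 hours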
[2] = Jurkat T cell cytotoxicity, dose response, cytotoxicity control for P. falciparum gametocyte viability project, luminescence (AID 1117277); format: functional, cell-based;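 note: potency reflects loss of cellular ATP meaning fewer viable cells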
[3] = A cytotoxicity screen of small molecule inhibitors of the PhoP region in Salmonella typhi identified in the primary screen. [Related pubchem assays: 1850, 1864, 1985 ]; format: functional
[4] = target: T1, Apoptotic protease-activating factor 1 (Homo sapiens, UniProt O14727); format: functional
T1 sequence (O14727 whole entry): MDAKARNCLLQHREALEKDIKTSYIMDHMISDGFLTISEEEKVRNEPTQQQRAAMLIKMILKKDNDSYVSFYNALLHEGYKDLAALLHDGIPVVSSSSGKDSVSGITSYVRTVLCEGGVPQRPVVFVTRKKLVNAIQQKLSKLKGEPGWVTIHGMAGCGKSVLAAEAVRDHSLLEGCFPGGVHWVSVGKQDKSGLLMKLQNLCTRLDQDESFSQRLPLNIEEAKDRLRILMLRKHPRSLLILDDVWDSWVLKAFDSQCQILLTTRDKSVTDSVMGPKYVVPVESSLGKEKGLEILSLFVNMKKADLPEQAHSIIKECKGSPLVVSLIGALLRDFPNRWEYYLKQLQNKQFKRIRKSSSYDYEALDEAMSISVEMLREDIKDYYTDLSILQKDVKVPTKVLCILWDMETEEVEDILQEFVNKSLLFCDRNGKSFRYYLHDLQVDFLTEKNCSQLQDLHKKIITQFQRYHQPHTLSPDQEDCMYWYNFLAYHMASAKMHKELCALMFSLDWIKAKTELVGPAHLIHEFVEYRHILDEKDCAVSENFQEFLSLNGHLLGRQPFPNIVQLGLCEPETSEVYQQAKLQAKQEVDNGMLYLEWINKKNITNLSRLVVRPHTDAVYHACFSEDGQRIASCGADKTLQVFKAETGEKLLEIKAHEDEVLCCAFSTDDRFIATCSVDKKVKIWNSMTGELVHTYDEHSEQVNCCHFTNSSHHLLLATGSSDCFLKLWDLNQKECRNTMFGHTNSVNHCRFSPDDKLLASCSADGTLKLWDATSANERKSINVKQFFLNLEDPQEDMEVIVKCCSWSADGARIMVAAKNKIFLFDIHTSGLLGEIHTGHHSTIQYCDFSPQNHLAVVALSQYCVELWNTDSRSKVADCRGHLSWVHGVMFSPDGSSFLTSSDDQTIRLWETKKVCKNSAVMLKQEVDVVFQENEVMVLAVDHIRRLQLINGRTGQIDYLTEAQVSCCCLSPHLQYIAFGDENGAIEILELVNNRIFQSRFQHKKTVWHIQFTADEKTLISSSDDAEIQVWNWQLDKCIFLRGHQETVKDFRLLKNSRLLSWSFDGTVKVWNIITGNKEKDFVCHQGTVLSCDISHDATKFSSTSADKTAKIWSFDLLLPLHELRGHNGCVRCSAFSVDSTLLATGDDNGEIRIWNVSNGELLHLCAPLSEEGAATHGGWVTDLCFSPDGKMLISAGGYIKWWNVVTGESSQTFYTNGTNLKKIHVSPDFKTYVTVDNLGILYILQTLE

Caspase-9 = target: T2, Caspase-9 (Homo sapiens, UniProt P55211); experiment: caspase-9 enzyme inhibition, dose response, selectivity assay for caspase-6 inhibitor project, biochemical, fluorescence, plate reader, cherry-picked samples (AID 743293)
T2 sequence (P55211 whole entry): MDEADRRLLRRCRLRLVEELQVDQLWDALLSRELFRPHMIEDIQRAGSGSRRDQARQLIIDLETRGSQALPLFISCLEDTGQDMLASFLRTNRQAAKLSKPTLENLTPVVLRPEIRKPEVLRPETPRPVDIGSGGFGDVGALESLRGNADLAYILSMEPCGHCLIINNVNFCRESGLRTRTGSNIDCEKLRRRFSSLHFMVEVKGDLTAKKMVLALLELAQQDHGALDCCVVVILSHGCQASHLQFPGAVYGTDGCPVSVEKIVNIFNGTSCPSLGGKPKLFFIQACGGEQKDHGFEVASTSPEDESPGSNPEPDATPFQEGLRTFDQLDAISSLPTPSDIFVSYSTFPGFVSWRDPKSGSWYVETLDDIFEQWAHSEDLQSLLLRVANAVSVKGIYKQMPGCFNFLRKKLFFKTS

Nonstructural protein 1 = Nonstructural protein 1 (Influenza A virus, UniProt Q194T2); format: functional, Influenza A virus (A/California/07/2009(H1N1))
Chain of Nonstructural protein 1 (Q194T2 whole entry): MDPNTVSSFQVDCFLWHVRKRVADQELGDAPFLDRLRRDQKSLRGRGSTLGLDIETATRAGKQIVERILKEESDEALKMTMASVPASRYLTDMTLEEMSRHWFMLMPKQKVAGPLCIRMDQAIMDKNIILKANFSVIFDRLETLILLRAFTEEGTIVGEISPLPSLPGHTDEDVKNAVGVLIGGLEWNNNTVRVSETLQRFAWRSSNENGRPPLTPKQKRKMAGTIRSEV

[5] = target: T3, Polyadenylate-binding protein 1 (Homo sapiens, UniProt P11940); experiment: PABP1 MLLE–PAM2 binding inhibitor potency, dose response, biochemical, fluorescence polarization, FITC-PAM2 peptide (AID 602259); format: functional; conditions: read-out: IC50_Mean
T3 sequence (P11940 whole entry): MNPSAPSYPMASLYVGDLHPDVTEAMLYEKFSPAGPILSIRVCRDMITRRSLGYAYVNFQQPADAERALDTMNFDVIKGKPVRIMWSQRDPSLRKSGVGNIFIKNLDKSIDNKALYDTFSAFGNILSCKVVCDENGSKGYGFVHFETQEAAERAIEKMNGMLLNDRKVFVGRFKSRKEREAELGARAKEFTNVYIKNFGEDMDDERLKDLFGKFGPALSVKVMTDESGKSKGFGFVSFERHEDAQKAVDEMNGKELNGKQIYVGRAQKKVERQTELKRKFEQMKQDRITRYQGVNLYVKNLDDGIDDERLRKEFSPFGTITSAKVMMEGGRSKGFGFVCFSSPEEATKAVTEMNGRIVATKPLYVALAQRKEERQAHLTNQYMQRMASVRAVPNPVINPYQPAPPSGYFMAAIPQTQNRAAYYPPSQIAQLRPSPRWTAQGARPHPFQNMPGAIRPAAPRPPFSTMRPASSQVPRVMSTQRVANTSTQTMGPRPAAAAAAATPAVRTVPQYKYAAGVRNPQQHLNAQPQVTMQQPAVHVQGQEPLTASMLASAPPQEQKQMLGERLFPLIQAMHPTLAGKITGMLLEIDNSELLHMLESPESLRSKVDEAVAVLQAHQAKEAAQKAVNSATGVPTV

Caspase-6 = target: T4, Caspase-6 (Homo sapiens, UniProt P55212); experiment: human caspase-6 inhibitors, dose response, biochemical, VEID-R110 fluorescence, cherry-pick (AID 720632)
T4 sequence (P55212 whole entry): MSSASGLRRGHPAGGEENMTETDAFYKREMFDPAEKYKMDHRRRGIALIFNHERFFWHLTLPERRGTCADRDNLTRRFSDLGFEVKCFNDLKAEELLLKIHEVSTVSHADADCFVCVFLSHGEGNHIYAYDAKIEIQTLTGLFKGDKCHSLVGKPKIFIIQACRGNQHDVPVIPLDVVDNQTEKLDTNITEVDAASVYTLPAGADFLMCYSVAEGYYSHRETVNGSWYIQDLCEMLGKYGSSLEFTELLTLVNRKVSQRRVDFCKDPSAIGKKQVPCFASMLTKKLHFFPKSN

Caspase-8 = Caspase-8 (Homo sapiens, UniProt Q14790); experiment: caspase-8 inhibition counter-screen, dose response, selectivity assay for caspase-6 inhibitor project, biochemical, Z-IETD-R110 fluorescence, cherry-picked samples (AID 743294)
Chain of Caspase-8 (Q14790 217-374 limits assumed): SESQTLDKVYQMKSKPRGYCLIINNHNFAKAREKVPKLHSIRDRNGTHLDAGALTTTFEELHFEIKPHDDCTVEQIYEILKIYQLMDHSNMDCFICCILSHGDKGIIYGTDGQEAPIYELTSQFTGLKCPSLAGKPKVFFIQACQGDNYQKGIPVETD
Chain of Caspase-8 (Q14790 385-479 limits assumed): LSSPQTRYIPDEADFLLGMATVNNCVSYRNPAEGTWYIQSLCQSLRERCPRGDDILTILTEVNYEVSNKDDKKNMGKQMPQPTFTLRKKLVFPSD

[6] = target: T3, Polyadenylate-binding protein 1; experiment: PABP1 MLLE–PAM2 interaction inhibitors, dose response, miRNA deadenylation inhibitor project, biochemical, fluorescence polarization, Cy5-PAM2 peptide, secondary (AID 602260); format: functional; conditions: read-out: IC50_Mean
Estrogen receptor beta = Estrogen receptor beta (Homo sapiens, UniProt Q92731);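 note: recombinant ER-beta bound to coactivator SRC1 peptide in presence of estradiol agonist; inhibitors block coactivator peptide binding and lower the FRET signal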
Chain of Estrogen receptor beta (Q92731 whole entry, the tested form may be a part): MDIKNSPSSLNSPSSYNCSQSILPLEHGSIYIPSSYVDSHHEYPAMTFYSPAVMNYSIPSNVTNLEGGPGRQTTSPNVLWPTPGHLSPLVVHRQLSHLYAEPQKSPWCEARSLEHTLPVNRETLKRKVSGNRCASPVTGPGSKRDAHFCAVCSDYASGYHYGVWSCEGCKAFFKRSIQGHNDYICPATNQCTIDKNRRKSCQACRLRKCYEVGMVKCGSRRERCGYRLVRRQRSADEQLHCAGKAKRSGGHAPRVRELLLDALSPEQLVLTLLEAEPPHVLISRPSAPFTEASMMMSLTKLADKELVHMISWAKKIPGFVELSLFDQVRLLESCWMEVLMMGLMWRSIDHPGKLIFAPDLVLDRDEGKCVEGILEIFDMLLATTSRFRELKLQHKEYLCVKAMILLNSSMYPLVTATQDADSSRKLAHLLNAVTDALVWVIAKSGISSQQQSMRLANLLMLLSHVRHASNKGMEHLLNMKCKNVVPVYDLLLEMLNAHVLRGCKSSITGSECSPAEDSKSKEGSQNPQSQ

[7] = target: T5, RNA-binding protein pos-1 (Caenorhabditis elegans, UniProt G5EF15); experiment: inhibitors of POS-1/mex-3 RNA binding, dose response, biochemical, fluorescence polarization (AID 1964);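 note: purified POS-1 fused to maltose binding protein made in E. coli; potency of compounds blocking POS-1 binding to fluorescent RNA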
T5 sequence (G5EF15 whole entry): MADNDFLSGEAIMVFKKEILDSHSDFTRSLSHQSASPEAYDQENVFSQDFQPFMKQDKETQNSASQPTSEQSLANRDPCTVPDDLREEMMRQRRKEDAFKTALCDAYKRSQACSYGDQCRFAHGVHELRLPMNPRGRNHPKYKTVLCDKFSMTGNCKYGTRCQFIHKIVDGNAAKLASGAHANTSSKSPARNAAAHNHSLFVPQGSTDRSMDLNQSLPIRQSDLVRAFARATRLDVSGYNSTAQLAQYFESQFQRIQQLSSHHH

[8] = target: T6, Zinc finger protein mex-5 (Caenorhabditis elegans, UniProt Q9XUB2); experiment: MEX-5/TCR-2 RNA interaction inhibitors, dose response, biochemical, C. elegans, fluorescence polarization (AID 1960)
T6 sequence (Q9XUB2 whole entry): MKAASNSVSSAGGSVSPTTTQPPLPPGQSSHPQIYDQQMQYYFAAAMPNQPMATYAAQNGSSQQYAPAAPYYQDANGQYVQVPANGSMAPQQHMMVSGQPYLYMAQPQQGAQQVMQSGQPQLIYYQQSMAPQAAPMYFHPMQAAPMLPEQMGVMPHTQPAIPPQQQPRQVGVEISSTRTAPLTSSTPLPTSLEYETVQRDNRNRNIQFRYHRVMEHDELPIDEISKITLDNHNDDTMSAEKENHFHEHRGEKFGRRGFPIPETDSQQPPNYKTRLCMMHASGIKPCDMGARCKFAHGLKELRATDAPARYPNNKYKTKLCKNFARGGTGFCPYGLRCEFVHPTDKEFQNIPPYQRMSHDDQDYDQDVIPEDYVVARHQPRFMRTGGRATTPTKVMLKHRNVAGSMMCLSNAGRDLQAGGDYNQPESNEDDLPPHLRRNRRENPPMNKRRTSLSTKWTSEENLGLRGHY

[9] = target: T7, Bifunctional protein GlmU (Mycobacterium tuberculosis, UniProt P9WMN3); experiment: Inhibitors of Mycobacterial Glucosamine-1-phosphate acetyl transferase (GlmU). Secondary screen.; set-up: species or system Mycobacterium tuberculosis H37Rv
T7 sequence (P9WMN3 whole entry): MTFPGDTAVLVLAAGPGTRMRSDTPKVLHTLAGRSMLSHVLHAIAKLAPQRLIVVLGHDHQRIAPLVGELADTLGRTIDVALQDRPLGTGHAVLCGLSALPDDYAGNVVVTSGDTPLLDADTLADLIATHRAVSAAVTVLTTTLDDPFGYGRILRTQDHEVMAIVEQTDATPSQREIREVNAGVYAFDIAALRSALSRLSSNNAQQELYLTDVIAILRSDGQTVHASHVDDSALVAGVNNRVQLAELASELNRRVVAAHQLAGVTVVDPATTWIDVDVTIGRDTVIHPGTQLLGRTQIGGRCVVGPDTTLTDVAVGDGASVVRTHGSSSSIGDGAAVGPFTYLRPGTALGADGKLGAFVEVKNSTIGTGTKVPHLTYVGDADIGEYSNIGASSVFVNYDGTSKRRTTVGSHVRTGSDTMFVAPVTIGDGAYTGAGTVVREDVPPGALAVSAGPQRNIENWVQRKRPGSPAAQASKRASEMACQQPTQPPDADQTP

Cytochrome P450 1A2 = target: T8, Cytochrome P450 1A2 (Homo sapiens, UniProt P05177);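 note: PubChem cytochrome P450 panel assay, CYP1A2 panel member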
T8 sequence (P05177 whole entry): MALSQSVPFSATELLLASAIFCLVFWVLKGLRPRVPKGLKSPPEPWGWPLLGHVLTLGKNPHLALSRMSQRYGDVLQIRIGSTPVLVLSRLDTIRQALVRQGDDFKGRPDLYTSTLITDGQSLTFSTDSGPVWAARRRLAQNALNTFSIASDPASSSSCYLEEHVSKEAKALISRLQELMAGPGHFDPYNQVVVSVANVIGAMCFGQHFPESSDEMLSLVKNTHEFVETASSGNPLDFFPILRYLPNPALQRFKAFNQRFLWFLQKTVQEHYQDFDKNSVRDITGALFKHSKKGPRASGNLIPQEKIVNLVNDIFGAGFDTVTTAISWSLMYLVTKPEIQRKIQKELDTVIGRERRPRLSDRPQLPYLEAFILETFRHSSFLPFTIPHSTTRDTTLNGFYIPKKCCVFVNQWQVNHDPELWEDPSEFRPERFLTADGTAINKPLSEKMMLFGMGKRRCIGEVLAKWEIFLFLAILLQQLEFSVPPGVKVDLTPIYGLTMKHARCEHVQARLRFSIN

Cytochrome P450 2D6 = Cytochrome P450 2D6 (Homo sapiens, UniProt P10635);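 note: CYP2D6 member of a cytochrome P450 panel assay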
Chain of Cytochrome P450 2D6 (P10635 whole entry): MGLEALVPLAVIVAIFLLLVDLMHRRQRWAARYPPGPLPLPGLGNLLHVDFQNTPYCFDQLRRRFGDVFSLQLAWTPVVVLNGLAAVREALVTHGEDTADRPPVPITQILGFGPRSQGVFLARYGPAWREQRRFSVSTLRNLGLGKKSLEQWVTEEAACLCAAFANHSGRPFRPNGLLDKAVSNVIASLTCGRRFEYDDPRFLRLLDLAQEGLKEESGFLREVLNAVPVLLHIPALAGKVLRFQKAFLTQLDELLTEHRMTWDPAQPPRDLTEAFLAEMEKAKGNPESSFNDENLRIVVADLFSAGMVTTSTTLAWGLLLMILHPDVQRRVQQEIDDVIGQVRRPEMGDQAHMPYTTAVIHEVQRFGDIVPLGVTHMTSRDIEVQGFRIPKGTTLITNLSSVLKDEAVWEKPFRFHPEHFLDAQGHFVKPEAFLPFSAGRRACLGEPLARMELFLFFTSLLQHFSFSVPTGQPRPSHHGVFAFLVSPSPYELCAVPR

[10] = Dose-response inhibition of insulin secretion in a rat insulinoma line at 5 mM glucose (AID 1117331); format: functional, cell-based; conditions: INS-1E
[11] = target: T9, Microphthalmia-associated transcription factor (Homo sapiens, UniProt O75030); experiment: TRPM1 promoter luciferase signal decrease, dose response, MITF inhibitor project, cell-based, SK-MEL-5, cherry-picked, set 3 (AID 493073); format: functional
T9 sequence (O75030 whole entry): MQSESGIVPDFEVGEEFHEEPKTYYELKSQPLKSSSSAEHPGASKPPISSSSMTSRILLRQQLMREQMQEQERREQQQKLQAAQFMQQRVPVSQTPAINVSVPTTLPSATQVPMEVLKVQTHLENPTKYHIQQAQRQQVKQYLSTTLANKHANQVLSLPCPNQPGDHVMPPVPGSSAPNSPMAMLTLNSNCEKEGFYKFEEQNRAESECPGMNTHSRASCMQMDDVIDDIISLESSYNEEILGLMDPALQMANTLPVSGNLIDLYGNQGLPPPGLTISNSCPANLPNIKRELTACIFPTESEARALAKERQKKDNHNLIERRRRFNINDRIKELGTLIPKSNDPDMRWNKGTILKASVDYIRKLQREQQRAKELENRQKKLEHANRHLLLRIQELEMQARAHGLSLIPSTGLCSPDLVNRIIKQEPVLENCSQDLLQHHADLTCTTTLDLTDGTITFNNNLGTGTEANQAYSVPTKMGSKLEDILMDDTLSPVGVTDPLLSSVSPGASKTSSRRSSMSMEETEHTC

CC1CCN(C(=O)CSc2ccc(-c3ccc(F)cc3)nn2)CC1
IC50 [1]: > 109 µM (inactive) | IC50 [2]: > 83.3 µM (inactive)

CCOC(=O)CSc1nnc2c(n1)C1(C)CCC2C1(C)C (centres undefined)
IC50 [1]: > 109 µM (inactive) | IC50 [2]: > 83.2 µM (inactive) | EC50 [3]: > 50 µM (active)

Oc1cc(NCCc2cccnc2)cc2cccnc12
IC50 [4]: 18.4 µM (active) | AC50 (Caspase-9): > 70 µM (inactive) | IC50 (Nonstructural protein 1): 6.64 µM (active) | IC50 [5]: 42.3 µM (inactive) | AC50 (Caspase-6): 2.89 µM (active) | AC50 (Caspase-8): 30.1 µM (active) | IC50 [6]: > 66 µM (inactive)

COC(=O)C(O)(c1ccc(N(C)C(=O)OC(C)C)cc1)C(F)(F)F (centres undefined)
IC50 (Estrogen receptor beta): > 50 µM (not active)

COc1ccccc1N1C(=O)C(Cl)=C(Nc2ccccc2O)C1=O
EC50 [7]: 34.7 µM (active) | EC50 [8]: 8.19 µM (inconclusive) | IC50 [9]: 90.9 µM (active)

Cn1c(SCC(=O)N2CCCCC2)nnc1-c1ccc(S(=O)(=O)N2CCOCC2)cc1
IC50 [1]: > 109 µM (inactive) | IC50 [2]: > 83.3 µM (inactive)

CCN(CC)CCOc1ccc(Cc2ccccc2)cc1
AC50 (Cytochrome P450 1A2): 12.6 µM (inconclusive) | AC50 (Cytochrome P450 2D6): 25.1 µM (inconclusive) | IC50 [10]: > 33.3 µM (inactive)

Cc1nn(-c2ccccc2Cl)c(Cl)c1/C=N/Nc1cccc(C(=O)O)c1
IC50 [9]: 137 µM (active) | AC50 [11]: 5.5 µM (active)

CCC1=C(C)CN(C(=O)NCCc2ccc(S(=O)(=O)NC(=O)N[C@H]3CC[C@H](C)CC3)cc2)C1=O [GLIMEPIRIDE]
IC50 [10]: 0.00406 µM (active)
